# According to patent EP1534672B1, “RETINOL DERIVATIVES, THEIR USE IN THE TREATMENT OF CANCER AND FOR POTENTIATING THE EFFICACY OF OTHER CYTOTOXIC AGENTS” (priority 2002, dated 2004):
# Where “and” joins values, the source holds several entries; their conditions need not be identical. Equal values may be shown once. Read-outs that look alike come from different tables or passages of the source. Marks after values point to notes of the source that are not given here.
# Key:
# [1] = single dose i.p. toxicity study in rats
# Protocol: (§1) A single dose i.p. toxicity study in rats was carried out. […] The minimal lethal dose is thus above 100 mg/kg body weight for these compounds.
# [2] = test system: Human Breast Adenocarcinoma Cell Line MDA-MB-231; assay: Drug cytotoxicity testing (viable cell count, trypan blue exclusion, cell growth inhibition); assay type: cell-based
# Procedure, shortened: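 A549 cells (10 × 10^3/well) and MDA-MB-231 cells (12 × 10^3/well) were left to adhere for 24 h, then exposed to drugs in medium with 5% FBS for 2 days. Viable cells were counted by trypan blue exclusion after trypsinization. Growth inhibition (%) = (control − test)/control × 100, from three determinations in six replicates each.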
# [3] = test system: Human Ovary Adenocarcinoma Cell Line SKOV-3; assay: as above; assay type: cell-based; conditions: alone or in formulation at molar ratio 1:6
# Protocol: MDA-MB-231 cells were propagated in MEM culture medium with 2 mM L-glutamine, 10% heat-inactivated fetal bovine serum (FBS) and antibiotics. DU 145 cells were cultured in MEM culture medium containing 2 mM L-glutamine, 1 mM sodium pyruvate, 10% FBS and antibiotics. SKOV-3 cells were cultured in McCoy's 5A culture medium, supplemented with 1,5 mM L-glutamine, 10% FBS and antibiotics. A549 cells were cultured in Ham's F-12 culture medium with 1 mM L-glutamine, 10% FBS and antibiotics. All media and supplements were purchased from Sigma-Aldrich (St.Louis, MO, USA). Cell propagation of all lines was carried out in Falcon™ 25 cm^2 cultivation flasks (Becton Dickinson Labware).
# Drug cytotoxicity testing was carried out with using Falcon™ 96-well cultivation plates for adherent cells (Becton Dickinson Labware). These plates were seeded by cells either at 12 × 10^3 MDA-MB-231 cells/well, or at 12 × 10^3 DU 145 cells/well, or at 14 × 10^3 SKOV-3 cells/well, or at 10 × 10^3 A549 cells/well in a volume of 200 µL/well.
# The cell cultures in cultivation plates were allowed to adhere for 24 hour of incubation. On day 1 after cell seeding, 2 µL solutions of the drugs to be tested in medium with 5% FBS was added to the cultures. In the control cultures, 2 µL of medium with 5% FBS was added as solvent control. The cells were incubated for 2 consecutive days. At the end of the incubation period adherent cells were detached by trypsinization and the number of viable cells was counted using trypan blue exclusion test and a hemocytometer. All data were derived from an average of three determinations each in six replicates. The results were expressed as mean cell number ± SE and the differences between control and test series evaluated by means of Student's t-test. The drug cytotoxicity was evaluated based on the extent of cell growth inhibition. The cell growth inhibition of the tested drugs was calculated as follows: Cell growth inhibition,% = (Control-TestSeries)/(Control) × 100 [formula]
# [4] = test system: Human Lung Carcinoma Cell Line A549; assay: as above; assay type: cell-based
# [5] = rat, in vivo, ip
# Protocol: as §1
# [6] = cytotoxic drug alone 10^-8 mol/L, average of positive controls in medium with 5% FBS, normal saline and saline with 2,3 mM CaCl2
# [7] = cytotoxic drug alone 10^-9 mol/L, average of positive controls in medium with 5% FBS, normal saline and saline with 2,3 mM CaCl2
# [8] = compound alone 10^-7 mol/L, in B (normal saline)
# [9] = compound alone 10^-8 mol/L, in B (normal saline)
# [10] = compound alone 10^-9 mol/L, in B (normal saline)
# [11] = sodium salt, range 10^-9 to 10^-7 M
compound,measurement,setting,value
"CC1=C(/C=C/C(C)=C/C=C/C(C)=C/C(=O)N[C@@H](CS(=O)O)C(=O)O)C(C)(C)CCC1 (stereo in doubt) [I-2, N-(all-trans-Retinoyl)-L-cysteinesulfinic acid]",minimal lethal dose,[1],above 100 mg/kg body weight
"CC(=O)O[C@H]1C(=O)[C@@]2(C)[C@H]([C@H](OC(=O)c3ccccc3)[C@]3(O)C[C@H](OC(=O)[C@H](O)[C@@H](NC(=O)c4ccccc4)c4ccccc4)C(C)=C1C3(C)C)[C@]1(OC(C)=O)CO[C@@H]1C[C@@H]2O [Paclitaxel, paclitaxel, reference compound]",inhibition at 0.01 µM,"[2]; Homo sapiens, MDA-MB-231, cytotoxic drug alone 10^-8 mol/L, average of positive controls in medium with 5% FBS, normal saline and saline with 2,3 mM CaCl2, read-out: Cell Growth Inhibition, %",43.3%
same,inhibition at 0.001 µM,"[2]; Homo sapiens, MDA-MB-231, cytotoxic drug alone 10^-9 mol/L, average of positive controls in medium with 5% FBS, normal saline and saline with 2,3 mM CaCl2, read-out: Cell Growth Inhibition, %",27.3%
same,IC50,"[2]; Homo sapiens, MDA-MB-231, cytotoxic drug alone, average of positive controls, calculated from three concentrations, read-out: IC50 mol/L (a)",17 nM
same,"Tumor Cell Number, × 10^3","[2]; cytotoxic drug alone 10^-7 mol/L, average of positive controls in medium with 5% FBS, normal saline and saline with 2,3 mM CaCl2",16.0±0.72 × 10^3 and 16.6±0.86 × 10^3
same,"Cell Growth Inhibition, %",[2]; [6],43.9* %
same,"Tumor Cell Number, × 10^3",[2]; [6],32.2±1.60 × 10^3 and 32.8±1.07 × 10^3
same,"Cell Growth Inhibition, %",[2]; [7],27.7* %
same,"Tumor Cell Number, × 10^3",[2]; [7],41.3±1.93 × 10^3 and 42.3±1.55 × 10^3
same,inhibition at 0.1 µM,"[3]; Homo sapiens, SK-OV-3, cytotoxic drug 10^-7 mol/L (100 nM), working solutions in medium with 5% FBS",71.1%
same,inhibition at 0.01 µM,"[3]; Homo sapiens, SK-OV-3, cytotoxic drug 10^-8 mol/L, working solutions in medium with 5% FBS",59.9%
same,inhibition at 0.001 µM,"[3]; Homo sapiens, SK-OV-3, cytotoxic drug 10^-9 mol/L, working solutions in medium with 5% FBS",24.8%
same,IC50,"[3]; Homo sapiens, SK-OV-3, as concentration of cytotoxic drug, medium with 5% FBS, calculated from three concentrations, read-out: IC50 mol/L (a)",4.5 nM
same,"Tumor Cell Number, × 10^3","[3]; cytotoxic drug 10^-7 mol/L (100 nM), working solutions in medium with 5% FBS",14.1 ± 0.98 × 10^3
same,"Tumor Cell Number, × 10^3","[3]; cytotoxic drug 10^-7 mol/L (100 nM), working solutions in medium with 5% FBS, listed as paclitaxel",14.6 ± 0.82 × 10^3
same,"Tumor Cell Number, × 10^3","[3]; cytotoxic drug 10^-8 mol/L, working solutions in medium with 5% FBS",19.9 ± 1.45 × 10^3
same,"Tumor Cell Number, × 10^3","[3]; cytotoxic drug 10^-9 mol/L, working solutions in medium with 5% FBS",37.3 ± 1.80 × 10^3
"COC(=O)[C@H](CS(=O)(=O)O)NC(=O)\C=C(C)/C=C/C=C(C)/C=C/C1=C(C)CCCC1(C)C [compound II-1a, N-(13-cis-retinoyl)-L-cysteic acid methyl ester]",inhibition at 0.1 µM,"[2]; Homo sapiens, MDA-MB-231, 48 h, compound alone, final concentration 10^-7 mol/L, working solutions in MEM with 5% FBS, two days, read-out: cell growth inhibition",46.5%
same,inhibition at 0.01 µM,"[2]; Homo sapiens, MDA-MB-231, 48 h, compound alone, final concentration 10^-8 mol/L, working solutions in MEM with 5% FBS, two days, read-out: cell growth inhibition",44.1%
same,inhibition at 0.001 µM,"[2]; Homo sapiens, MDA-MB-231, 48 h, compound alone, final concentration 10^-9 mol/L, working solutions in MEM with 5% FBS, two days, read-out: cell growth inhibition",38.8%
same,inhibition at 0.1 µM,"[2]; Homo sapiens, MDA-MB-231, compound alone 10^-7 mol/L, in A (saline with […] CaCl2), read-out: cell growth inhibition",48.9%
same,inhibition at 0.1 µM,"[2]; Homo sapiens, MDA-MB-231, compound alone 10^-7 mol/L, in B (normal saline), read-out: cell growth inhibition",40.5%
same,inhibition at 0.1 µM,"[2]; Homo sapiens, MDA-MB-231, compound alone 10^-7 mol/L, read-out: Cell growth inhibition in A compared to that in B was increased by",14.1%
same,inhibition at 0.01 µM,"[2]; Homo sapiens, MDA-MB-231, compound alone 10^-8 mol/L, in A (saline with […] CaCl2), read-out: cell growth inhibition",41.7%
same,inhibition at 0.01 µM,"[2]; Homo sapiens, MDA-MB-231, compound alone 10^-8 mol/L, in B (normal saline), read-out: cell growth inhibition",31.2%
same,inhibition at 0.01 µM,"[2]; Homo sapiens, MDA-MB-231, compound alone 10^-8 mol/L, read-out: Cell growth inhibition in A compared to that in B was increased by",15.2%
same,inhibition at 0.001 µM,"[2]; Homo sapiens, MDA-MB-231, compound alone 10^-9 mol/L, in A (saline with […] CaCl2), read-out: cell growth inhibition",35.8%
same,inhibition at 0.001 µM,"[2]; Homo sapiens, MDA-MB-231, compound alone 10^-9 mol/L, in B (normal saline), read-out: cell growth inhibition",23%
same,inhibition at 0.001 µM,"[2]; Homo sapiens, MDA-MB-231, compound alone 10^-9 mol/L, read-out: Cell growth inhibition in A compared to that in B was increased by",16.6%
same,number of viable cells,[2]; [8],34.1 ± 1.97 × 10^3
same,number of viable cells,[2]; [9],39.4 ± 2.28 × 10^3
same,number of viable cells,[2]; [10],44.1 ± 2.24 × 10^3
same,number of viable cells,"[2]; compound alone, final concentration 10^-7 mol/L, working solutions in MEM with 5% FBS, two days",31.3 ± 2.15 × 10^3
same,number of viable cells,"[2]; compound alone, final concentration 10^-8 mol/L, working solutions in MEM with 5% FBS, two days",32.7 ± 2.06 × 10^3
same,number of viable cells,"[2]; compound alone, final concentration 10^-9 mol/L, working solutions in MEM with 5% FBS, two days",35.8 ± 2.50 × 10^3
same,cell growth inhibition in (A) compared to compound in B,[2]; [11],~14%
same,inhibition at 0.1 µM,"[4]; Homo sapiens, A549, compound alone 10^-7 mol/L, in A (saline with […] CaCl2)",34.4%
same,inhibition at 0.1 µM,"[4]; Homo sapiens, A549, compound alone 10^-7 mol/L, in B (normal saline)",25.6%
same,increase in cell growth inhibition in A over B at 0.1 µM,"[4]; Homo sapiens, A549, compound alone 10^-7 mol/L, read-out: Cell growth inhibition in A compared to that in B was increased by",11.8%
same,inhibition at 0.01 µM,"[4]; Homo sapiens, A549, compound alone 10^-8 mol/L, in A (saline with […] CaCl2)",26.9%
same,inhibition at 0.01 µM,"[4]; Homo sapiens, A549, compound alone 10^-8 mol/L, in B (normal saline)",15.6%
same,increase in cell growth inhibition in A over B at 0.01 µM,"[4]; Homo sapiens, A549, compound alone 10^-8 mol/L, read-out: Cell growth inhibition in A compared to that in B was increased by",13.4%
same,inhibition at 0.001 µM,"[4]; Homo sapiens, A549, compound alone 10^-9 mol/L, in A (saline with […] CaCl2)",20.4%
same,inhibition at 0.001 µM,"[4]; Homo sapiens, A549, compound alone 10^-9 mol/L, in B (normal saline)",7.2%
same,increase in cell growth inhibition in A over B at 0.001 µM,"[4]; Homo sapiens, A549, compound alone 10^-9 mol/L, read-out: Cell growth inhibition in A compared to that in B was increased by",14.3%
same,number of viable cells,[4]; [8],41.5 ± 1.80 × 10^3
same,number of viable cells,[4]; [9],47.1 ± 1.43 × 10^3
same,number of viable cells,[4]; [10],51.8 ± 2.48 × 10^3
same,cell growth inhibition in (A) compared to compound in B,[4]; [11],~12%
same,"cell growth inhibition reached on increase of the concentration, in (B)","[4]; sodium salt, range 10^-9 to 10^-7 M, dilution in normal saline (B)",~26%
same,minimal lethal dose,[5],above 100 mg/kg body weight
same,mortality,[5]; 100 mg/kg,did not produce mortality
